Assays:
Assay type in all cases: in vivo
[1] = system: wheat (winter wheat, Triticum aestivum); test: Test C preemergence, plant response rating; details: scale 0 to 100; for Wheat plant response rating: preemergence
How it was run: (§1)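 Preemergence: seeds sown in loam–sand blend or silt loam and sprayed with test chemicals in a non-phytotoxic surfactant-containing solvent. Postemergence: potted plants at 2–18 cm (1–4-leaf stage) sprayed with the same formulation. After 13–15 d in greenhouse, visual rating versus controls on 0 (no effect) to 100 (complete control) scale.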

[2] = system: nutsedge, yellow (yellow nutsedge, Cyperus esculentus); test: Test C preemergence, plant response rating; details: scale 0 to 100; for Nutsedge, Yellow plant response rating: preemergence
How it was run: as §1

[3] = system: lambsquarters (Chenopodium album); test: Test C preemergence, plant response rating; details: scale 0 to 100; for Lambsquarters plant response rating: preemergence
How it was run: as §1

[4] = system: waterhemp (common waterhemp, Amaranthus rudis); test: Test C preemergence, plant response rating; details: scale 0 to 100; for Waterhemp plant response rating: preemergence
How it was run: as §1

[5] = system: morningglory (Ipomoea coccinea); test: Test C preemergence, plant response rating; details: scale 0 to 100; for Morningglory plant response rating: preemergence
How it was run: as §1

[6] = system: velvetleaf (Abutilon theophrasti); test: Test C preemergence, plant response rating; details: scale 0 to 100; for Velvetleaf plant response rating: preemergence
How it was run: as §1

[7] = system: crabgrass, large (large crabgrass, Digitaria sanguinalis); test: Test C postemergence, plant response rating; details: Digitaria sanguinalis, post-emergence
How it was run: as §1

[8] = system: ryegrass, Italian (Italian ryegrass, Lolium multiflorum); test: Test C postemergence, plant response rating; details: Lolium multiflorum, post-emergence
How it was run: as §1

[9] = system: barnyardgrass (Echinochloa crus-galli); test: Test C postemergence, plant response rating; details: Echinochloa crus-galli, post-emergence
How it was run: as §1

[10] = system: Italian ryegrass (Lolium multiflorum); test: Test A postemergence, visual injury rating; details: Lolium multiflorum, post-emergence, 240 h, 0 is no effect, 100 is complete control, read-out: Ryegrass, Italian plant response rating (0 to 100 scale)
How it was run: (§2)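 Visual 0–100 rating (100 = complete control) taken about 10 d post-treatment relative to untreated checks. Preemergence: directed soil spray on sown loam/sand pots. Postemergence: seedlings 2–10 cm, 1–2 leaf. Non-phytotoxic solvent formulation with surfactant.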

[11] = system: ragweed (common ragweed, Ambrosia elatior); test: Test A postemergence, visual injury rating; details: Ambrosia artemisiifolia, post-emergence, 240 h, 0 is no effect, 100 is complete control, read-out: Ragweed plant response rating (0 to 100 scale)
How it was run: as §2

[12] = system: pigweed (Amaranthus retroflexus); test: Test A postemergence, visual injury rating; details: Amaranthus retroflexus, post-emergence, 240 h, 0 is no effect, 100 is complete control, read-out: Pigweed plant response rating (0 to 100 scale)
How it was run: as §2

[13] = system: blackgrass (Alopecurus myosuroides); test: Test A postemergence, visual injury rating; details: Alopecurus myosuroides, post-emergence, 240 h, 0 is no effect, 100 is complete control, read-out: Blackgrass plant response rating (0 to 100 scale)
How it was run: as §2

[14] = system: galium (catchweed bedstraw, Galium aparine); test: Test A postemergence, visual injury rating; details: Galium, post-emergence, 240 h, 0 is no effect, 100 is complete control, read-out: Galium plant response rating (0 to 100 scale)
How it was run: as §2

kochia (Kochia scoparia) = test: Test A postemergence, visual injury rating; details: Bassia scoparia, post-emergence, 240 h, 0 is no effect, 100 is complete control, read-out: Kochia plant response rating (0 to 100 scale)
How it was run: as §2

[15] = system: giant foxtail (Setaria faberii); test: Test A postemergence, visual injury rating; details: Setaria faberi, post-emergence, 240 h, 0 is no effect, 100 is complete control, read-out: Foxtail, Giant plant response rating (0 to 100 scale)
How it was run: as §2

[16] = system: wheat (Triticum aestivum); test: Test A postemergence, visual injury rating; details: Triticum aestivum, post-emergence, 240 h, 0 is no effect, 100 is complete control, read-out: Wheat plant response rating (0 to 100 scale)
How it was run: as §2

[17] = system: barnyardgrass (Echinochloa crus-galli); test: Test A postemergence, visual injury rating; details: Echinochloa crus-galli, post-emergence, 240 h, 0 is no effect, 100 is complete control, read-out: Barnyardgrass plant response rating (0 to 100 scale)
How it was run: as §2

corn (Zea mays) = test: Test A postemergence, visual injury rating; details: Zea mays, post-emergence, 240 h, 0 is no effect, 100 is complete control, read-out: Corn plant response rating (0 to 100 scale)
How it was run: as §2

CCCOC(=O)c1c(Br)cccc1Oc1ncc(Cl)cn1 [Compound 13, propyl 2-bromo-6-[(5-chloro-2-pyrimidinyl)oxy]benzoate]
plant injury at 16 g/ha ([1]; Triticum aestivum, pre-emergence, Preemergence, 16 g ai/ha): 0% | plant injury at 31 g/ha ([1]; Triticum aestivum, pre-emergence, Preemergence, 31 g ai/ha): 5% | Wheat plant response rating ([1]; 4 g ai/ha): 0 | Wheat plant response rating ([1]; 8 g ai/ha): 0 | pest or weed control at 16 g/ha ([2]; Cyperus, pre-emergence, Preemergence, 16 g ai/ha): 0% | pest or weed control at 31 g/ha ([2]; Cyperus, pre-emergence, Preemergence, 31 g ai/ha): 5% | Nutsedge, Yellow plant response rating ([2]; 4 g ai/ha): 0 | Nutsedge, Yellow plant response rating ([2]; 8 g ai/ha): 0 | pest or weed control at 16 g/ha ([3]; Chenopodium album, pre-emergence, Preemergence, 16 g ai/ha): 50% | pest or weed control at 31 g/ha ([3]; Chenopodium album, pre-emergence, Preemergence, 31 g ai/ha): 15% | Lambsquarters plant response rating ([3]; 4 g ai/ha): 0 | Lambsquarters plant response rating ([3]; 8 g ai/ha): 5 | pest or weed control at 16 g/ha ([4]; Amaranthus tuberculatus, pre-emergence, Preemergence, 16 g ai/ha): 80% | pest or weed control at 31 g/ha ([4]; Amaranthus tuberculatus, pre-emergence, Preemergence, 31 g ai/ha): 100% | Waterhemp plant response rating ([4]; 4 g ai/ha): 5 | Waterhemp plant response rating ([4]; 8 g ai/ha): 10 | pest or weed control at 16 g/ha ([5]; Ipomoea, pre-emergence, Preemergence, 16 g ai/ha): 5% | pest or weed control at 31 g/ha ([5]; Ipomoea, pre-emergence, Preemergence, 31 g ai/ha): 5% | Morningglory plant response rating ([5]; 4 g ai/ha): 0 | Morningglory plant response rating ([5]; 8 g ai/ha): 0 | pest or weed control at 16 g/ha ([6]; Abutilon theophrasti, pre-emergence, Preemergence, 16 g ai/ha): 20% | pest or weed control at 31 g/ha ([6]; Abutilon theophrasti, pre-emergence, Preemergence, 31 g ai/ha): 70% | Velvetleaf plant response rating ([6]; 4 g ai/ha): 5 | Velvetleaf plant response rating ([6]; 8 g ai/ha): 10 | pest or weed control at 4 g/ha ([7]; 4 g ai/ha, scale of 0 to 100): 5% | pest or weed control at 8 g/ha ([7]; 8 g ai/ha, scale of 0 to 100): 5% | pest or weed control at 16 g/ha ([7]; 16 g ai/ha, scale 0 to 100): 5% | pest or weed control at 31 g/ha ([7]; 31 g ai/ha, scale 0 to 100): 15% | pest or weed control at 4 g/ha ([8]; 4 g ai/ha, scale of 0 to 100): 0% | pest or weed control at 8 g/ha ([8]; 8 g ai/ha, scale of 0 to 100): 0% | pest or weed control at 16 g/ha ([8]; 16 g ai/ha, scale 0 to 100): 0% | pest or weed control at 31 g/ha ([8]; 31 g ai/ha, scale 0 to 100): 0% | pest or weed control at 4 g/ha ([9]; 4 g ai/ha, scale of 0 to 100): 5% | pest or weed control at 8 g/ha ([9]; 8 g ai/ha, scale of 0 to 100): 5% | pest or weed control at 16 g/ha ([9]; 16 g ai/ha, scale 0 to 100): 10% | pest or weed control at 31 g/ha ([9]; 31 g ai/ha, scale 0 to 100): 10% | pest or weed control at 125 g/ha ([10]; 125 g ai/ha): 0% | pest or weed control at 500 g/ha ([10]; 500 g ai/ha): 100% | pest or weed control at 125 g/ha ([11]; 125 g ai/ha): 0% | pest or weed control at 500 g/ha ([11]; 500 g ai/ha): 20% | pest or weed control at 125 g/ha ([12]; 125 g ai/ha): 90% | pest or weed control at 500 g/ha ([12]; 500 g ai/ha): 100% | pest or weed control at 125 g/ha ([13]; 125 g ai/ha): 30% | pest or weed control at 500 g/ha ([13]; 500 g ai/ha): 70% | pest or weed control at 125 g/ha ([14]; 125 g ai/ha): 100% | pest or weed control at 500 g/ha ([14]; 500 g ai/ha): 100% | pest or weed control at 125 g/ha (kochia (Kochia scoparia); 125 g ai/ha): 100% | pest or weed control at 500 g/ha (kochia (Kochia scoparia); 500 g ai/ha): 100% | pest or weed control at 125 g/ha ([15]; 125 g ai/ha): 80% | pest or weed control at 500 g/ha ([15]; 500 g ai/ha): 100% | plant injury at 125 g/ha ([16]; 125 g ai/ha): 20% | plant injury at 500 g/ha ([16]; 500 g ai/ha): 30% | pest or weed control at 125 g/ha ([17]; 125 g ai/ha): 80% | pest or weed control at 500 g/ha ([17]; 500 g ai/ha): 100% | plant injury at 125 g/ha (corn (Zea mays); 125 g ai/ha): 30% | plant injury at 500 g/ha (corn (Zea mays); 500 g ai/ha): 90%

Source: patent US11053204B2, “Pyrimidinyloxy benzene derivatives as herbicides” (FMC Corporation, priority 2015, dated 2021)
